Laboratory results: US20150164762A1, “USE OF ETHANOLAMINE PHOSPHATE” (priority 2012, published 2015)

Tested on: BEAS-2B
Assay: Comprehensive gene expression analysis with Whole Human Genome DNA microarray after EP treatment
Type: cell-based
Experimental: Cells of the established normal human airway epithelial cell line BEAS-2B were used in the experiment. These cells were expansively cultured in 10% FBS RPMI-1640, and seeded at a density of 1×10^5/cm^2 on a 24-well plate. After 24 hours 0.1% FBS RPMI-1640 was substituted, and EP was administered to a final concentration of 0 or 1 mM (n=4). After 24 hours, the cells were used as the DNA microarray samples. RNA was extracted using a QIAGEN RNeasy Mini Kit. The DNA microarray test was performed using a Whole Human Genome DNA microarray 4×44K (Agilent), and the necessary labeling reagents and the like for the DNA microarray test were all from Agilent. The DNA microarray test data were analyzed statistically with GeneSpring (Agilent) dedicated analysis software, and gene function analysis (Gene Ontology (GO) analysis) was performed based on differential expression. The purpose of the GO analysis is to determine stochastically the degree to which gene sets with statistically significant differential expression correspond to known functional classification gene sets. […] The p-value is calculated according to the following formula.

[1] = probe A_23_P149529, 1 mM EP, 24 h
[2] = probe A_23_P151294, NM_000619, EP vs control
[3] = probe A_23_P151294, 1 mM EP, 24 h
[4] = probe A_23_P151649, NM_080649, EP vs control
[5] = probe A_23_P156310, 1 mM EP, 24 h
[6] = probe A_23_P159210, 1 mM EP, 24 h
[7] = probe A_23_P160025, 1 mM EP, 24 h
[8] = probe A_23_P163787, 1 mM EP, 24 h
[9] = probe A_23_P167096, 1 mM EP, 24 h
[10] = probe A_23_P167585, NM_005260, EP vs control
[11] = probe A_23_P168882, 1 mM EP, 24 h
[12] = probe A_23_P168909, 1 mM EP, 24 h
[13] = probe A_23_P169030, 1 mM EP, 24 h
[14] = probe A_23_P169738, 1 mM EP, 24 h
[15] = probe A_23_P201808, 1 mM EP, 24 h
[16] = probe A_23_P202978, 1 mM EP, 24 h
[17] = probe A_23_P206077, 1 mM EP, 24 h
[18] = probe A_23_P206396, 1 mM EP, 24 h
[19] = probe A_23_P206661, NM_000903, EP vs control
[20] = probe A_23_P207003, 1 mM EP, 24 h
[21] = probe A_23_P207999, 1 mM EP, 24 h
[22] = probe A_23_P208706, 1 mM EP, 24 h
[23] = probe A_23_P209625, NM_000104, EP vs control
[24] = probe A_23_P211762, 1 mM EP, 24 h
[25] = probe A_23_P211957, 1 mM EP, 24 h
[26] = probe A_23_P213706, NM_000589, EP vs control
[27] = probe A_23_P213745, NM_004887, EP vs control
[28] = probe A_23_P214950, 1 mM EP, 24 h
[29] = probe A_23_P217866, 1 mM EP, 24 h
[30] = probe A_23_P250554, 1 mM EP, 24 h
[31] = probe A_23_P252817, 1 mM EP, 24 h
[32] = probe A_23_P253932, 1 mM EP, 24 h
[33] = probe A_23_P255653, 1 mM EP, 24 h
[34] = probe A_23_P258194, 1 mM EP, 24 h
[35] = probe A_23_P258310, NM_144651, EP vs control
[36] = probe A_23_P259071, NM_001657, EP vs control
[37] = probe A_23_P303210, 1 mM EP, 24 h

Q: For `NCCOP(=O)(O)O` [EP, Ethanolamine phosphate], which “TACSTD2 expression R*: Ratio to control” value [1] is on record?
A: 1.507 times

Q: What about the “TACSTD2 expression log2 [ratio]” value [1] of the same molecule?
A: 0.591

Q: What about the “IFNG gene expression, R* ratio to control” value [2] of the same molecule?
A: 0.611 times

Q: And the “IFNG gene expression, log2 [ratio]” value [2]?
A: −0.710

Q: And the “IFNG expression R*: Ratio to control” value [3]?
A: 0.611 times

Q: What about the “IFNG expression log2 [ratio]” value [3] of the same molecule?
A: −0.710

Q: What about the “APEX1 gene expression, R* ratio to control” value [4] of the same molecule?
A: 1.455 times

Q: What about the “APEX1 gene expression, log2 [ratio]” value [4] of the same molecule?
A: 0.541

Q: What about the “SKP2 expression R*: Ratio to control” value [5] of the same molecule?
A: 1.531 times

Q: What about the “SKP2 expression log2 [ratio]” value [5] of the same molecule?
A: 0.615

Q: And the “CDKN1A expression R*: Ratio to control” value [6]?
A: 0.439 times

Q: And the “CDKN1A expression log2 [ratio]” value [6]?
A: −1.187

Q: And the “IFI16 expression R*: Ratio to control” value [7]?
A: 0.629 times

Q: And the “IFI16 expression log2 [ratio]” value [7]?
A: −0.669

Q: What about the “MMP2 expression R*: Ratio to control” value [8] of the same molecule?
A: 1.578 times

Q: What about the “MMP2 expression log2 [ratio]” value [8] of the same molecule?
A: 0.658

Q: And the “VEGFC expression R*: Ratio to control” value [9]?
A: 1.637 times

Q: And the “VEGFC expression log2 [ratio]” value [9]?
A: 0.711

Q: And the “GDF9 gene expression, R* ratio to control” value [10]?
A: 0.357 times

Q: What about the GDF9 gene expression, log2 [ratio] [10] of the same molecule?
A: -1.49

Q: And the “TP53INP1 expression R*: Ratio to control” value [11]?
A: 0.395 times

Q: And the “TP53INP1 expression log2 [ratio]” value [11]?
A: −1.339

Q: And the “ZFPM2 expression R*: Ratio to control” value [12]?
A: 1.678 times

Q: And the “ZFPM2 expression log2 [ratio]” value [12]?
A: 0.746

Q: What about the “TNFRSF10B expression R*: Ratio to control” value [13] of the same molecule?
A: 0.636 times

Q: What about the “TNFRSF10B expression log2 [ratio]” value [13] of the same molecule?
A: −0.653

Q: And the “SOX7 expression R: Ratio to control” value [14]?
A: 0.362 times

Q: What about the “SOX7 expression log2 [ratio]” value [14] of the same molecule?
A: −1.464

Q: And the “PPAP2B expression R*: Ratio to control” value [15]?
A: 1.919 times

Q: And the “PPAP2B expression log2 [ratio]” value [15]?
A: 0.941

Q: And the “CASP1 expression R*: Ratio to control” value [16]?
A: 0.641 times

Q: And the “CASP1 expression log2 [ratio]” value [16]?
A: −0.642

Q: And the “AEN expression R*: Ratio to control” value [17]?
A: 0.420 times

Q: What about the “AEN expression log2 [ratio]” value [17] of the same molecule?
A: −1.253

Q: And the “CKLF expression R*: Ratio to control” value [18]?
A: 1.601 times

Q: What about the “CKLF expression log2 [ratio]” value [18] of the same molecule?
A: 0.679

Q: And the “NQO1 gene expression, R* ratio to control” value [19]?
A: 1.480 times

Q: What about the “NQO1 gene expression, log2 [ratio]” value [19] of the same molecule?
A: 0.566

Q: What about the “SEPT4 expression R*: Ratio to control” value [20] of the same molecule?
A: 0.503 times

Q: And the “SEPT4 expression log2 [ratio]” value [20]?
A: −0.990

Q: And the “PMAIP1 expression R: Ratio to control” value [21]?
A: 0.344 times

Q: And the “PMAIP1 expression log2 [ratio]” value [21]?
A: −1.540

Q: And the “BAX expression R*: Ratio to control” value [22]?
A: 0.453 times

Q: And the “BAX expression log2 [ratio]” value [22]?
A: −1.143

Q: And the “CYP1B1 gene expression, R* ratio to control” value [23]?
A: 1.584 times

Q: And the “CYP1B1 gene expression, log2 [ratio]” value [23]?
A: 0.663

Q: What about the “COL8A1 expression R*: Ratio to control” value [24] of the same molecule?
A: 1.643 times

Q: And the “COL8A1 expression log2 [ratio]” value [24]?
A: 0.716

Q: And the “TGFBR2 expression R*: Ratio to control” value [25]?
A: 1.634 times

Q: And the “TGFBR2 expression log2 [ratio]” value [25]?
A: 0.708

Q: And the “IL4 gene expression, R* ratio to control” value [26]?
A: 0.420 times

Q: And the “IL4 gene expression, log2 [ratio]” value [26]?
A: −1.251

Q: And the “CXCL14 gene expression, R* ratio to control” value [27]?
A: 0.364 times

Q: And the “CXCL14 gene expression, log2 [ratio]” value [27]?
A: −1.456

Q: And the “PERP expression R: Ratio to control” value [28]?
A: 0.521 times

Q: And the “PERP expression log2 [ratio]” value [28]?
A: −0.941

Q: And the “1FI16 expression R*: Ratio to control” value [29]?
A: 0.585 times

Q: What about the “1FI16 expression log2 [ratio]” value [29] of the same molecule?
A: −0.773

Q: And the “AGGF1 expression R*: Ratio to control” value [30]?
A: 1.523 times

Q: What about the “AGGF1 expression log2 [ratio]” value [30] of the same molecule?
A: 0.607

Q: What about the “SST expression R: Ratio to control” value [31] of the same molecule?
A: 0.666 times

Q: And the “SST expression log2 [ratio]” value [31]?
A: −0.587

Q: What about the “FAIM expression R*: Ratio to control” value [32] of the same molecule?
A: 1.670 times

Q: What about the “FAIM expression log2 [ratio]” value [32] of the same molecule?
A: 0.740

Q: What about the “TNFRSF10A expression R*: Ratio to control” value [33] of the same molecule?
A: 0.402 times

Q: What about the “TNFRSF10A expression log2 [ratio]” value [33] of the same molecule?
A: −1.314

Q: And the “A1FM3 expression R*: Ratio to control” value [34]?
A: 0.580 times

Q: And the “A1FM3 expression log2 [ratio]” value [34]?
A: −0.761

Q: What about the “PXDNL gene expression, R* ratio to control” value [35] of the same molecule?
A: 2.426 times

Q: What about the “PXDNL gene expression, log2 [ratio]” value [35] of the same molecule?
A: 1.278

Q: And the “AREG gene expression, R* ratio to control” value [36]?
A: 0.128 times

Q: And the “AREG gene expression, log2 [ratio]” value [36]?
A: −2.969

Q: And the “IKBIP expression R*: Ratio to control” value [37]?
A: 0.468 times

Q: And the “IKBIP expression log2 [ratio]” value [37]?
A: −1.095
